Data on five molecules can be found in patent US20230226061A1, “COMBINATION CANCER THERAPY WITH DYRK1 INHIBITORS AND INHIBITORS OF THE RAS-RAF-MEK-ERK (MAPK) PATHWAY” (Felicitex Therapuetics, Inc., priority 2022, published 2023).

The structures appear in SMILES notation. Where two headings read alike, the source gives them in different places.

Data set [1] relates to NSCLC H23 cells (KRAS-G12C). The experiment in a line: Cell viability assay in 2D cell culture (CellTiter-Glo), H23. Conditions: for EC50: Homo sapiens, NCI-H23, 96 h.
Data set [2] relates to NSCLC A549 cells (KRAS-G12S). Nature of the data set: Cell viability assay in 2D cell culture (CellTiter-Glo), A549. As to conditions: for EC50: A549, 96 h.
In data set [3] the test system is 3D spheroids of NSCLC H23 cells (KRAS-G12C). The experiment in a line: Cell viability assay in 3D cell culture (spheroids), H23. The class given is cell-based. Conditions: Homo sapiens, NCI-H23, H23 3D spheroids, read-out: EC50 for trametinib. The procedure: For the treatment, 50 μL of media was removed from each well and replaced with fresh media with compounds. […] If the treatment time exceeded 4 days, 70 μL of media in each well was replaced with fresh media containing the test compound every fourth day. Each treatment was performed in duplicate. […] Prior to analysis, the spheroids were photographed at 50× magnification.
For the treatment, 50 μL of media was removed from each well and replaced with fresh media with compounds. […] If the treatment time exceeded 4 days, 70 μL of media in each well was replaced with fresh media containing the test compound every fourth day. Each treatment was performed in duplicate. […] Prior to analysis, the spheroids were photographed at 50× magnification

In data set [4] the test system is ovarian cancer OVCAR cells (wild KRAS). Nature of the data set: Cell viability assay in 2D cell culture (CellTiter-Glo), OVCAR. The class given is cell-based. As to conditions: for EC50: 96 h. For orientation: Cellular ATP, detected with luciferase, serves as a proxy for viable cell number.
In data set [5] the test system is NSCLC H1975 cells (wild-type KRAS). The experiment in a line: Cell viability assay in 2D cell culture (CellTiter-Glo), H1975. The class given is cell-based. Conditions: for EC50: Homo sapiens, NCI-H1975, 96 h, H1975, 96 h.
For data set [6], the system named is quiescent and proliferating pancreatic cancer cells. As to conditions: reported by Ewton et al. 2011; cited from earlier work.
The subject of data set [7] is H2122 NSCLC cells (KRAS G12C). Nature of the data set: FACS analysis of cell cycle distribution (acridine orange), H2122. The class given is cell-based. In general terms: A flow cytometer gives signals particle by particle.
Data set [8] has as its system DYRK1B, MAPK, p27 in SW620 cells. Nature of the data set: Western blot analysis of protein expression in SW620 cells. The class given is cell-based. Conditions: SW620, 20 nM trametinib and 5 μM compound I-7, vs trametinib alone. The protocol:
For Western Blot analysis cells were seeded into 6-well plates at 5×10^5-9×10^5 cells/well (depending on the cell size and rate of proliferation), allowed to attach for 24 hours, then treated with compounds for 24 hours, and harvested. Immunoblotting was performed using conventional techniques, as described in Cell Signaling Technologies Western Blotting protocol (www.cellsignal.com).
Antibodies used for blotting were from Cell Signaling Technology (CST): DYRK1B (D40D1) Rabbit mAb #5672; β-Actin (13E5) Rabbit mAb #4970; Anti-rabbit IgG, HIRP-linked Antibody #7074. The Primary Antibody Dilution Buffer 1×TBST with 5% BSA (CST #9998) was used. For detection, SignalFire™ ECL Reagent (CST #6883) was used.
The expression levels of DYRK1B, ph-t202 MAPK, total MAPK, ph-S10 p27, total p27 and β-actin in SW620 cells following the 24 hours treatment with trametinib or combination of trametinib and compound I-7 as observed by Western blot analysis are shown in FIG. 13. The expression of DYRK1B protein was compared to that in untreated cells incubated in regular growth medium containing FBS (FBS+) or serum free medium (FBS−), single treatment with trametinib to the treatment with combination of trametinib and compound I-7.

For data set [9], the system named is NSCLC H2122 cells (KRAS-G12C). Nature of the data set: Cell viability assay in 2D cell culture (CellTiter-Glo), H2122.
Data set [10] has as its system colon cancer SW620 cells (G12V). The experiment in a line: FACS analysis of cell cycle distribution (acridine orange), SW620. Conditions: SW620, 5 μM Compound I-7 and 20 nM trametinib, 24 hours. The class given is cell-based. The protocol:
SW620 cells were cultured, treated, and analyzed as described in Example 1. The results when different concentrations of trametinib, Compound I-7, or both trametinib and Compound I-7 are present are shown in FIG. 10.

Data set [11] has as its system NSCLC H358 cells (KRAS-G12C). Nature of the data set: Cell viability assay in 2D cell culture (CellTiter-Glo), H358.
Where [12] appears, read: H2122, 5 μM Compound I-7 and 100 nM AMG-510, FBS+.
Setting [13] is: H2122, 5 μM Compound I-7 and 100 nM MRTX 849, 48 hours.

One may read the EC50 as the concentration giving half of the maximal effect. For the molecule `CC(=O)Nc1cccc(-n2c(=O)n(C3CC3)c(=O)c3c(Nc4ccc(I)cc4F)n(C)c(=O)c(C)c32)c1` [trametinib], the EC50 stood at 19.2 nM in [1] (read-out: EC50 for trametinib, H23 2D, 96 h, Compound I-7 not present); 15.5 nM in [1] (read-out: EC50 for trametinib, H23 2D, 96 h, Compound I-7 present at 0.12 μM); 11.8 nM in data set [1] (read-out: EC50 for trametinib, H23 2D, 96 h, Compound I-7 present at 3.3 μM); 16.2 nM in data set [2] (read-out: EC50 for trametinib, Compound I-7 not present); 16 nM in [2] (read-out: EC50 for trametinib, Compound I-7 present at 2.2 μM); 3.2 nM in data set [2] (read-out: EC50 for trametinib, Compound I-7 present at 6.73 μM). In addition, the half-maximal effective concentration (EC50) in data set [3] (Compound I-7 not present) was 1.7 nM; in data set [3] (Compound I-7 present at 5 μM), 1.2 nM; in data set [3] (Compound I-7 present at 10 μM), less than 0.01 nM.
In the case of `Cn1cnc2c(F)c(Nc3ccc(Br)cc3Cl)c(C(=O)NOCCO)cc21` [selumetinib], the 50% effective concentration (EC50) in [4] (Compound I-7 not present, highest selumetinib concentration 50 μM) is 238000 nM; in data set [4] (Compound I-7 present at 1 μM, read-out: EC50 for selumetinib) it was 173000 nM; in [4] (Compound I-7 present, read-out: EC50 for selumetinib), less than 100 nM; in [2] (read-out: EC50 for selumetinib, Compound I-7 not present), 2350 nM; in data set [2] (read-out: EC50 for selumetinib, Compound I-7 present at 3 μM) it was 920 nM; in [2] (read-out: EC50 for selumetinib, Compound I-7 present at 6 μM) it was 10 nM. Further, the EC50 in [5] (Compound II-1 not present, highest selumetinib concentration 20 μM) was found to be 59000 nM; in data set [5] (Compound II-1 present at 1 μM, read-out: EC50 for selumetinib) it was 130 nM.
As to `COc1ncc2cc(C(=O)Nc3cc(C(=O)NCc4cccc(Cl)c4)ccc3Cl)c(=O)[nH]c2n1` [TC-S 7004], the “effectiveness against quiescent and proliferating cancer cells in vitro” value in data set [6] is “effective against both quiescent and proliferating cancer cells”.
Consider `CCOC(=N)c1nc2ccc3ncnc(Nc4cc(F)c(F)cc4Cl)c3c2s1` [Compound I-7], for which the “effect of combination on cytotoxicity” value in [1] (H23, combined with trametinib) is listed as “synergistic”; in [2] (A549, combined with trametinib), “synergistic”; in data set [9] (H2122, combined with AMG-510), “synergistic”; in data set [9] (H2122, combined with MRTX-849), “synergistic”. Besides, the “apoptotic cells (sub-G0 fraction)” value in [7] (setting [12]) is listed as “large increase in apoptotic cells”. Moreover, in data set [7] (setting [12]), the “proportion of quiescent cells” value is recorded as “no such increase in proportion of quiescent cells was observed”. Besides, the “apoptotic cells (sub-G0 population)” value in data set [7] (setting [13]) and in data set [10] was “significant increases in apoptotic cells” in each case. Also, the “fraction of cells in G0” value in data set [7] (setting [13]) and in [10] (vs trametinib alone) was “reduced the fraction of cells in G0” in each case. In addition, the “phosphorylation of p27 (Western blot)” value in data set [8] is recorded as “decrease of the phosphorylation of p27”. Besides, in data set [8], the “total levels of p27 (Western blot)” value was “decrease”. Further, in data set [2] (A549, combined with selumetinib), the “effect of combination on cytotoxicity of selumetinib” value is given as “significant increase in cytotoxicity”.
As to `c1cncc(-c2ccnc3ccc(-c4c[nH]c5ncccc45)cc23)c1` [Compound II-1], the “effect of combination on cytotoxicity” value in [11] (H358, combined with AMG-510) was “synergistic”; in data set [11] (H358, combined with MRTX-849), “synergistic”; in [4] (combined with selumetinib), “synergistic effect”; in data set [5] (H1975, combined with selumetinib) it was “synergistic effect”.
